According to US8058285B2, “Substituted pyrido [3′, 2′: 4, 5] thieno [3, 2-D] pyrimidines and pyrido [3′, 2′: 4, 5] furo [3, 2-D] pyrimidines used as inhibitors of the PDE-4 and/or the release of TNF-ALPHA” (The Medicines Company (Leipzig) GmbH, priority 2004, dated 2011):
Where a name gives a salt, the structure may show the parent alone.

Target: T1, PDE-4A (Homo sapiens, UniProt P27815)
T1 construct: PDE-4A catalytic domain comprising amino acids 342-704; made in house; host or cells: Escherichia coli
T1 sequence (P27815 342-704): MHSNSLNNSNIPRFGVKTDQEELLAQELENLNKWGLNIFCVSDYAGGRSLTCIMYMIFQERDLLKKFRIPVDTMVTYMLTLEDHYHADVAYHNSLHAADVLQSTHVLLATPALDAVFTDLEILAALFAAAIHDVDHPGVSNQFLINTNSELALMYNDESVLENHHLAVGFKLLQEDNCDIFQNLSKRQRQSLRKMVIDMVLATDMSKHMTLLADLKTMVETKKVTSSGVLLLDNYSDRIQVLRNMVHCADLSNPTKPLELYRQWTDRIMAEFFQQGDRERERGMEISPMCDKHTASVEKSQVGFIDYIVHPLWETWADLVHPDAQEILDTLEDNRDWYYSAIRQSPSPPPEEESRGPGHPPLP
Assay: PDE-4A inhibitory assay (SPA)
Format: biochemical
Text: Human recombinant PDE-4A catalytic domain comprising amino acids 342-704 was cloned into Escherichia coli and expressed, as described by W. Richter et al., Protein Expression and Purification (2000) 19: 375-383. The other posphodiesterases were either obtained from cell lines of human origin (TPH1 monocytes line for PDE-1, MCF7 for PDE-5) or expressed recombinantly in sf9 insect cells (for PDE-3A, PDE-3B, PDE-7A and PDE-4D) in accordance with an adapted method by Luckow, V. A. et al., in: Recombinant DNA Technology & Applications., (1991) eds. Prokop, Bajpai, R. K. & Ho, C. S., pp 97-152.
The phosphodiesterase activity was determined by the SPA assay as described by the manufacturer Amersham Biosciences and by Horton J. K and Baxendale P. M., Methods Mol. Biol. (1995) 41: 91-105.
The reaction mixtures contained 100 mM Tris-HCl (pH 7.5), 5 mM MgCl2, 3.8 mM 2-mercaptoethanol, and 1 μM cAMP or cGMP as a substrate, the inhibitors at different concentrations and also further components required for the detection of the individual isoenzymes (see below). The reaction was started by adding the enzyme. The operating volume is 100 μl in the wells of a white 96-Well microtiter plate. The test substances were produced as stock solutions in DMSO. The DMSO concentration in the reaction batch was 1% v/v. The PDE activity is not impaired with this DMSO concentration. Having started the reaction by the addition of enzyme, the samples were incubated at 22° C. for 20 min. The reaction was stopped by the addition of SPA bead suspension which contains the zinc sulfate concentration provided according to the manufacturer. Then, the beads are allowed to sediment for 30 min and the plates are analyzed on the luminescence microtiter plate reader Fluostar Optima (BMG Labtechologies).
[^3H]-cAMP was used as a substrate for determining the activity of PDE-2, -3, -4 and -7 and [^3H]-cGMP for determining the activity of PDE-5. The non-specific enzyme activities were determined in the presence of 100 μM rolipram (for PDE-4) and in the presence of 100 μM IBMX (for PDE-3 and -5) and subtracted from the test values. The incubation samples of the PDE-3 assay contain 10 μM rolipram to inhibit possible contaminations by PDE-4. The PDE-2 activity is tested using a SPA assay by Amersham Biosciences in the presence of the PDE-2 activator 5 μM cGMP. […] The selectivity as to PDEs 2, 3 and 5 has a factor of 100 to 10 000.

Work on `CCOc1nc(N2CCNCC2)nc2c1sc1nc(-c3ccc(C)cc3)cc(C)c12` [4-Ethoxy-9-methyl-7-(4-methyl-phenyl)-2-(piperazin-1-yl)-pyrido[3′,2′:4,5]thieno[3,2-d]pyrimidine] yielded an IC50 of 2 to 50 nM.
`CCOc1nc(N2CCNCC2)nc2c1sc1nc(N3CCOCC3)cc(C)c12` [4-Ethoxy-9-methyl-7-morpholino-2-(piperazin-1-yl)-pyrido[3′,2′:4,5]thieno[3,2-d]pyrimidine] was tested, and the IC50 was 2 to 50 nM.
`CCOc1nc(N2CCNCC2)nc2c1sc1nc(-c3ccc(C)cc3)cc(CC)c12` [4-Ethoxy-9-ethyl-7-(4-methyl-phenyl)-2-(piperazin-1-yl)-pyrido[3′,2′:4,5]thieno[3,2-d]pyrimidine] was tested, and the IC50 was under 2 nM.
For `CCOc1nc(N2CCNCC2)nc2c1sc1nc(-c3ccc(Cl)cc3)cc(C(F)F)c12` [9-Difluoromethyl-7-(4-chloro-phenyl)-4-ethoxy-2-piperazin-1-yl-pyrido[3′,2′:4,5]thieno[3,2-d]pyrimidine], the IC50 was 2 to 50 nM.
With `CCOc1nc(N2CCNCC2)nc2c1sc1nc(-c3ccc(SC)cc3)cc(C(F)(F)F)c12` [4-Ethoxy-7-(4-methylthiophenyl)-2-(piperazin-1-yl)-9-trifluoromethyl-pyrido[3′,2′:4,5]thieno[3,2-d]pyrimidine] the IC50 was under 2 nM.
For `CCOc1nc(N2CCNCC2)nc2c1sc1nc(-c3ccc(-c4ccc(C(=O)O)cc4N)cc3)nc(C)c12` [2′-Amino-4-(4-ethoxy-9-methyl-2-piperazin-1-yl-thieno[2,3-d:4,5-d′]dipyrimidin-7-yl)-biphenyl-4′-carboxylic acid sodium salt], the IC50 was 2 to 50 nM.
Compound `CCOc1nc(N2CCNCC2)nc2c1sc1nc(-c3ccc(N)cc3)cc(C(F)(F)F)c12` [7-(4-Amino-phenyl)-4-ethoxy-2-piperazin-1-yl-9-trifluoromethyl-pyrido[3′,2′:4,5]thieno[3,2-d]pyrimidine] has an IC50 of 2 to 50 nM.
`CCOc1nc(N2CCNCC2)nc2c1sc1nc(-c3ccc4c(c3)OCCO4)cc(CC)c12` [4-Ethoxy-9-ethyl-7-(2,3-dihydrobenzo[b][1,4]dioxin-6-yl)-2-(piperazin-1-yl)-pyrido[3′,2′:4,5]thieno[3,2-d]pyrimidine] showed an IC50 of under 2 nM.
`CCCCOc1ccc(Oc2ccc(-c3nc(C)c4c(n3)sc3c(OCC)nc(N5CCNCC5)nc34)cc2)cc1` [7-(4-[4-n-Butoxy-phenoxy]phenyl)-4-ethoxy-9-methyl-2-piperazin-1-yl-thieno[2,3-d:4,5-d′]dipyrimidine] showed an IC50 of 2 to 50 nM.
Compound `CCOc1nc(N2CCNCC2)nc2c1sc1nc(-c3ccc(F)cc3)cc(C(F)(F)F)c12` [4-Ethoxy-7-(4-fluoro-phenyl)-2-piperazin-1-yl-9-trifluoromethyl-pyrido[3′,2′:4,5]thieno[3,2-d]pyrimidine] has an IC50 of 2 to 50 nM.
For `CCOc1nc(N2CCNCC2)nc2c1sc1nc(-c3ccc(-c4ccc(C(=O)OC)cc4N)cc3)nc(C)c12` [2′-Amino-4-(4-ethoxy-9-methyl-2-piperazin-1-yl-thieno[2,3-d:4,5-d′]dipyrimidin-7-yl)-biphenyl-4′-carboxylic acid methyl ester], the IC50 was under 2 nM.
For `CCOc1nc(N2CCNCC2)nc2c1sc1nc(C)cc(-c3ccccc3)c12` [4-Ethoxy-7-methyl-9-phenyl-2-(piperazin-1-yl)-pyrido[3′,2′:4,5]thieno[3,2-d]pyrimidine], the IC50 was 2 to 50 nM.
Work on `CCOc1nc(N2CCNCC2)nc2c1sc1nc(-c3ccc(Oc4ccc(OC)cc4)cc3)cc(CC)c12` [4-Ethoxy-9-ethyl-7-[4-(4-methoxyphenoxy)phenyl]-2-(piperazin-1-yl)-pyrido[3′,2′:4,5]thieno[3,2-d]pyrimidine] yielded an IC50 of under 2 nM.
Work on `CCOc1nc(N2CCNCC2)nc2c1sc1nc(-c3ccc(-c4cccc(C(=O)O)c4)cc3)nc(C)c12` [4-(4-Ethoxy-9-methyl-2-piperazin-1-yl-thieno[2,3-d:4,5-d′]dipyrimidin-7-yl)-biphenyl-3′-carboxylic acid potassium salt] yielded an IC50 of 2 to 50 nM.
For `CCOc1nc(N2CCNCC2)nc2c1sc1nc(-c3ccc(-c4ccccc4)cc3)nc(C)c12` [7-(4-Biphenyl)-4-ethoxy-9-methyl-2-piperazin-1-yl-thieno[2,3-d:4,5-d′]dipyrimidine], the IC50 was 2 to 50 nM.
`CCOc1nc(N2CCNCC2)nc2c1sc1nc(-c3cccc(N)c3)cc(C(F)(F)F)c12` [7-(3-Amino-phenyl)-4-Ethoxy-2-piperazin-1-yl-9-trifluoromethyl-pyrido[3′,2′:4,5]thieno[3,2-d]pyrimidine] showed an IC50 of 2 to 50 nM.
In the case of `CCOc1ccc(-c2cc(CC)c3c(n2)sc2c(OCC)nc(N4CCNCC4)nc23)cc1` [4-Ethoxy-7-(4-ethoxy-phenyl)-9-ethyl-2-(piperazin-1-yl)-pyrido[3′,2′:4,5]thieno[3,2-d]pyrimidine], the IC50 is reported as under 2 nM.
`CCOc1nc(N2CCNCC2)c2sc3nc(-c4ccc5c(c4)OCCO5)cc(CC)c3c2n1` [2-Ethoxy-9-ethyl-7-(2,3-dihydrobenzo[b][1,4]dioxin-6-yl)-4-(piperazin-1-yl)-pyrido[3′,2′:4,5]thieno[3,2-d]pyrimidine] showed an IC50 of under 2 nM.
Compound `CCOc1nc(N2CCNCC2)nc2c1sc1nc(N3CCOCC3)c3c(c12)CCCCC3` [9-Ethoxy-6-morpholino-11-(piperazin-1-yl)-2,3,4,5-tetrahydro-1H-cyclohepta[4′,5′]pyrido[3′,2′:4,5]thieno[3,2-d]pyrimidine] has an IC50 of 2 to 50 nM.
`CCOc1nc(N2CCNCC2)nc2c1sc1nc(-c3ccc(-c4ccncc4)cc3)nc(C)c12` [4-Ethoxy-9-methyl-2-piperazin-1-yl-7-(4-[4-pyridyl]-phenyl)-thieno[2,3-d:4,5-d′]dipyrimidine] was tested, and the IC50 was under 2 nM.
Work on `CCOc1nc(N2CCNCC2)nc2c1sc1nc(-c3ccc(Oc4ccccc4)cc3)nc(C)c12` [4-Ethoxy-9-methyl-7-(4-phenoxy-phenyl)-2-piperazin-1-yl-thieno[2,3-d:4,5-d′]dipyrimidine] yielded an IC50 of under 2 nM.
Work on `CCOc1nc(N2CCNCC2)nc2c1sc1nc(-c3ccc(-c4cncnc4)cc3)nc(C)c12` [4-Ethoxy-9-methyl-2-piperazin-1-yl-7-(4-[5-pyrimidinyl]-phenyl)-thieno[2,3-d:4,5-d′]dipyrimidine] yielded an IC50 of 2 to 50 nM.
For `CCOc1nc(N2CCNCC2)nc2c1sc1nc(-c3ccccc3)nc(C)c12` [4-Ethoxy-9-methyl-7-phenyl-2-piperazin-1-yl-thieno[2,3-d:4,5-d′]dipyrimidine], the IC50 was 2 to 50 nM.
Compound `CCOc1nc(N2CCNCC2)nc2c1sc1nc(Cc3ccccc3)nc(C)c12` [7-Benzyl-4-ethoxy-9-methyl-2-piperazin-1-yl-thieno[2,3-d:4,5-d′]dipyrimidine] has an IC50 of 2 to 50 nM.
For `CCOc1nc(N2CCNCC2)nc2c1sc1nc(N3CCN(c4ncccn4)CC3)cc(CC)c12` [4-Ethoxy-9-ethyl-7-(4-(pyrimidyl-2-yl)piperazin-1-yl)-2-piperazin-1-yl-pyrido[3′,2′:4,5]thieno[3,2-d]pyrimidine], the IC50 was under 2 nM.
`CCOc1nc(N2CCNCC2)nc2c1sc1nc(-c3ccc(N4CCOCC4)cc3)cc(C(F)(F)F)c12` [4-Ethoxy-7-(4-morpholinophenyl)-2-(piperazin-1-yl)-9-trifluoromethyl-pyrido[3′,2′:4,5]thieno[3,2-d]pyrimidine] gave an IC50 of 2 to 50 nM.
`CCOc1nc(N2CCNCC2)nc2c1sc1nc(-c3ccc(C#N)cc3)cc(C(F)(F)F)c12` [7-(4-Cyano-phenyl)-4-ethoxy-2-piperazin-1-yl-9-trifluoromethyl-pyrido[3′,2′:4,5]thieno[3,2-d]pyrimidine] was tested, and the IC50 was 2 to 50 nM.
`Cc1cc(-c2ccccc2)nc2sc3c(N4CCNCC4)nc(OCC(F)F)nc3c12` [2-(2,2-Difluoro-ethoxy)-9-methyl-7-phenyl-4-(piperazin-1-yl)-pyrido[3′,2′:4,5]thieno[3,2-d]pyrimidine] showed an IC50 of 2 to 50 nM.
Compound `CCOc1nc(N2CCNCC2)nc2c1sc1nc(-c3ccc(Br)cc3)cc(C)c12` [7-(4-Bromo-phenyl)-4-ethoxy-9-methyl-2-(piperazin-1-yl)-pyrido[3′,2′:4,5]thieno[3,2-d]pyrimidine] has an IC50 of 2 to 50 nM.
`CCOc1nc(N2CCNCC2)nc2c1sc1nc(-c3ccc(C(O)c4cccnc4)cc3)nc(C)c12` (stereo not shown) [4-Ethoxy-7-(4-[hydroxy{3-pyridyl}methyl]-phenyl)-9-methyl-2-piperazin-1-yl-thieno[2,3-d:4,5-d′]dipyrimidine] showed an IC50 of 2 to 50 nM.
`CCOc1nc(N2CCNCC2)nc2c1sc1nc(-c3ccc(-n4cccn4)cc3)cc(C(F)(F)F)c12` [4-Ethoxy-7-(4-(1H-pyrazol-1-yl)-phenyl)-2-piperazin-1-yl-9-trifluoromethyl-pyrido[3′,2′:4,5]thieno[3,2-d]pyrimidine] was tested, and the IC50 was under 2 nM.
